Laboratory results published in ChEMBL document CHEMBL1130589, “Synthesis and evaluation of a novel series of phosphodiesterase IV inhibitors. A potential treatment for asthma” (Bioorg Med Chem Lett, 1998).

Assays:
Assay type in all cases: protein assay
Phosphodiesterase 4 [1] = target: T1, Phosphodiesterase 4 (Homo sapiens, UniProt P27815+Q08499+Q07343+Q08493); assay: Inhibition of phosphodiesterase 4
Phosphodiesterase 4 [2] = target: T1, Phosphodiesterase 4; assay: Inhibition of Rolipram binding to PDE4
Phosphodiesterase 4 [3] = target: T1, Phosphodiesterase 4; assay: Relative inhibition of phosphodiesterase 4 activity and Rolipram binding to PDE4
Phosphodiesterase 4 [4] = target: T1, Phosphodiesterase 4; assay: Inhibition of Rolipram binding to PDE4 at 100 uM
Phosphodiesterase 4 [5] = target: T1, Phosphodiesterase 4; assay: (§1) Inhibition of Rolipram binding to PDE4 at 1 uM
Phosphodiesterase 4 [6] = target: T1, Phosphodiesterase 4; assay: as §1; remark: listed apart in the source
Phosphodiesterase 4 [7] = target: T1, Phosphodiesterase 4; assay: Inhibition of Rolipram binding to PDE4 at 10 uM

SMILES	IC50 (Phosphodiesterase 4 [1]) [µM]	Ratio (Phosphodiesterase 4 [3])	inhibition (Phosphodiesterase 4 [4]) [%]	inhibition (Phosphodiesterase 4 [5]) [%]	IC50 (Phosphodiesterase 4 [6]) [µM]	inhibition (Phosphodiesterase 4 [7]) [%]	IC50 (Phosphodiesterase 4 [2]) [µM]
CCCn1cc(C(=O)NCCc2ccncc2)c(=O)c2cc(C(F)(F)F)ccc21.Cl	1.7	0.17					10
CCn1cc(C(=O)N(C)CCc2ccccc2)c(=O)c2cc(C(F)(F)F)ccc21	49	< 0.49	15				
CCn1cc(C(=O)NC2CCc3cc(OC)c(OC)cc32)c(=O)c2cc(C(F)(F)F)ccc21 (configuration not stated)	0.9	< 0.9		22			
CCn1cc(C(=O)N/N=C/c2ccccc2Cl)c(=O)c2cc(C(F)(F)F)ccc21	1.1				10		
CC1CCc2cc(F)cc3c(=O)c(C(=O)NCCc4ccncc4)cn1c23 (configuration not stated)	7	< 0.7				8	
CCn1cc(C(=O)NCCc2ccncc2)c(=O)c2cc3c(cc21)OCO3	23	1				31	

More lines, main results first:

IC50 (Phosphodiesterase 4 [1]) [µM]	Ratio (Phosphodiesterase 4 [3])	inhibition (Phosphodiesterase 4 [4]) [%]	inhibition (Phosphodiesterase 4 [5]) [%]	IC50 (Phosphodiesterase 4 [6]) [µM]	inhibition (Phosphodiesterase 4 [7]) [%]	SMILES	IC50 (Phosphodiesterase 4 [2]) [µM]
0.6	< 0.6		8			CCn1cc(C(=O)NCCc2ccccc2)c(=O)c2cc(C(F)(F)F)ccc21	
1.8	< 1		17			CCn1cc(C(=O)NC2CCc3cc(NC(C)=O)ccc32)c(=O)c2cnc(N3CCCC3)nc21 (configuration not stated)	
1.2	< 1		11			CCn1cc(C(=O)NCCc2ccncc2)c(=O)c2cnc(N3CCCC3)nc21	
0.46	< 0.46		15			CCn1cc(C(=O)NCCc2ccncc2)c(=S)c2cc(C(F)(F)F)ccc21	
1.5	< 0.15				24	CCn1cc(C(=O)NCCc2ccncc2)c(=O)c2cc(C(F)(F)F)ccc21	
